Reference: US6528538B1, “Cyclic compounds useful in the treatment of dyslipidaemia, atherosclerosis and diabetes, pharamaceutical compositions and preparation process” (Merck Patentgesellschaft, priority 1998, dated 2003)

melting point | SMILES
117 °C | CCOC(=O)C1(c2ccc(Cl)cc2)OCC2(CCC2)CO1
171 °C | O=C(O)C1OCC2(CCC2c2ccc(Cl)cc2)CO1 (stereo not drawn)
158 to 160 °C | O=C(O)C1OCC2(CO1)c1ccccc1-c1ccccc12
